Assay results as given in paper PMC8037182, “Solvothermal Synthesis of Multiple Dihydropyrimidinones at a Time as Inhibitors of Eg5” (Molecules, 2021).

Key:
L929 cell line = assay: Cytotoxicity MTS assay, L929 cell line; type: cell-based; settings: for OD490 values, Mean / OD490 values, Well 1 / OD490 values, Well 2 / OD490 values, Well 3: L929 cell line
Method: (§1) The positive compounds (IC50 < 100 μM) obtained from the primary Eg5 motor protein ATPase assay were tested for antiproliferative activity in vitro against Caco-2 cell line, Hela cell line, L929 cell line and T24 cell line by performing MTS assay. Cells were introduced into 96-well plates at a density of 1000 cells per well. After 24 h incubation, the cells were exposed with compounds at final concentrations ranging from 0.5 to 100 µM for 24 h. DMSO was used at a final concentration of 0.025% as blank control, monastrol was used as the positive control. Then 20 µL (CellTiter 96® AQueous One Solution Promega, Madison, WI, USA) reagent was added in each well. After 2 h at 37 °C in a 80% humidified, 5% CO2 atmosphere, the absorbance at 490 nm was recorded using a microplate reader (BIO-RAD iMark^TM). The results were obtained in three independent duplicate experiments. The primary data were shown in Supplementary Materials Tables S4–S7. The IC50 values for these compounds were calculated from a non-linear regression graph plotted between the percentage of cell viability and concentration with SPSS17.0 software.

T24 cell line = assay: Cytotoxicity MTS assay, T24 cell line; type: cell-based; settings: for OD490 Mean / OD490 Well 1 / OD490 Well 2 / OD490 Well 3: T24 cell line
Method: as §1

CCOC(=O)c1[nH]c(C2NC(=O)NC(C)=C2C(=O)Nc2ccccc2C)c(C(=O)OC)c1C (centres unmarked) [D4]
OD490 values, Mean (L929 cell line; 0.5μM, first assay): 1.2390 | OD490 values, Well 1 (L929 cell line; 0.5μM, first assay): 1.2664 | OD490 values, Well 2 (L929 cell line; 0.5μM, first assay): 1.2769 | OD490 values, Well 3 (L929 cell line; 0.5μM, first assay): 1.1737 | OD490 values, Mean (L929 cell line; 0.5μM, second assay): 1.6699 | OD490 values, Well 1 (L929 cell line; 0.5μM, second assay): 1.5847 | OD490 values, Well 2 (L929 cell line; 0.5μM, second assay): 1.7925 | OD490 values, Well 3 (L929 cell line; 0.5μM, second assay): 1.6324 | OD490 values, Mean (L929 cell line; 0.5μM, third assay): 1.6193 | OD490 values, Well 1 (L929 cell line; 0.5μM, third assay): 1.5741 | OD490 values, Well 2 (L929 cell line; 0.5μM, third assay): 1.5987 | OD490 values, Well 3 (L929 cell line; 0.5μM, third assay): 1.6852 | OD490 values, Mean (L929 cell line; 1μM, first assay): 1.1804 | OD490 values, Well 1 (L929 cell line; 1μM, first assay): 1.2290 | OD490 values, Well 2 (L929 cell line; 1μM, first assay): 1.2817 | OD490 values, Well 3 (L929 cell line; 1μM, first assay): 1.0306 | OD490 values, Mean (L929 cell line; 1μM, second assay): 1.6792 | OD490 values, Well 1 (L929 cell line; 1μM, second assay): 1.5848 | OD490 values, Well 2 (L929 cell line; 1μM, second assay): 1.6985 | OD490 values, Well 3 (L929 cell line; 1μM, second assay): 1.7542 | OD490 values, Mean (L929 cell line; 1μM, third assay): 1.5459 | OD490 values, Well 1 (L929 cell line; 1μM, third assay): 1.5698 | OD490 values, Well 2 (L929 cell line; 1μM, third assay): 1.5478 | OD490 values, Well 3 (L929 cell line; 1μM, third assay): 1.5202 | OD490 values, Mean (L929 cell line; 10μM, first assay): 1.0446 | OD490 values, Well 1 (L929 cell line; 10μM, first assay): 1.1408 | OD490 values, Well 2 (L929 cell line; 10μM, first assay): 0.9532 | OD490 values, Well 3 (L929 cell line; 10μM, first assay): 1.0397 | OD490 values, Mean (L929 cell line; 10μM, second assay): 1.6098 | OD490 values, Well 1 (L929 cell line; 10μM, second assay): 1.5562 | OD490 values, Well 2 (L929 cell line; 10μM, second assay): 1.5879 | OD490 values, Well 3 (L929 cell line; 10μM, second assay): 1.6852 | OD490 values, Mean (L929 cell line; 10μM, third assay): 1.5291 | OD490 values, Well 1 (L929 cell line; 10μM, third assay): 1.5364 | OD490 values, Well 2 (L929 cell line; 10μM, third assay): 1.5879 | OD490 values, Well 3 (L929 cell line; 10μM, third assay): 1.4630 | OD490 values, Mean (L929 cell line; 25μM, first assay): 0.9627 | OD490 values, Well 1 (L929 cell line; 25μM, first assay): 0.8216 | OD490 values, Well 2 (L929 cell line; 25μM, first assay): 0.8395 | OD490 values, Well 3 (L929 cell line; 25μM, first assay): 1.2269 | OD490 values, Mean (L929 cell line; 25μM, second assay): 1.4236 | OD490 values, Well 1 (L929 cell line; 25μM, second assay): 1.4545 | OD490 values, Well 2 (L929 cell line; 25μM, second assay): 1.4879 | OD490 values, Well 3 (L929 cell line; 25μM, second assay): 1.3285 | OD490 values, Mean (L929 cell line; 25μM, third assay): 1.2968 | OD490 values, Well 1 (L929 cell line; 25μM, third assay): 1.3325 | OD490 values, Well 2 (L929 cell line; 25μM, third assay): 1.3214 | OD490 values, Well 3 (L929 cell line; 25μM, third assay): 1.2365 | OD490 values, Mean (L929 cell line; 50μM, first assay): 0.9261 | OD490 values, Well 1 (L929 cell line; 50μM, first assay): 0.8106 | OD490 values, Well 2 (L929 cell line; 50μM, first assay): 0.9635 | OD490 values, Well 3 (L929 cell line; 50μM, first assay): 1.0043 | OD490 values, Mean (L929 cell line; 50μM, second assay): 1.2976 | OD490 values, Well 1 (L929 cell line; 50μM, second assay): 1.3201 | OD490 values, Well 2 (L929 cell line; 50μM, second assay): 1.2240 | OD490 values, Well 3 (L929 cell line; 50μM, second assay): 1.3487 | OD490 values, Mean (L929 cell line; 50μM, third assay): 1.2105 | OD490 values, Well 1 (L929 cell line; 50μM, third assay): 1.1145 | OD490 values, Well 2 (L929 cell line; 50μM, third assay): 1.2301 | OD490 values, Well 3 (L929 cell line; 50μM, third assay): 1.2869 | OD490 values, Mean (L929 cell line; 100μM, first assay): 0.7075 | OD490 values, Well 1 (L929 cell line; 100μM, first assay): 0.8384 | OD490 values, Well 2 (L929 cell line; 100μM, first assay): 0.6461 | OD490 values, Well 3 (L929 cell line; 100μM, first assay): 0.6379 | OD490 values, Mean (L929 cell line; 100μM, second assay): 0.8731 | OD490 values, Well 1 (L929 cell line; 100μM, second assay): 0.9062 | OD490 values, Well 2 (L929 cell line; 100μM, second assay): 0.8662 | OD490 values, Well 3 (L929 cell line; 100μM, second assay): 0.8469 | OD490 values, Mean (L929 cell line; 100μM, third assay): 0.8397 | OD490 values, Well 1 (L929 cell line; 100μM, third assay): 0.8652 | OD490 values, Well 2 (L929 cell line; 100μM, third assay): 0.7214 | OD490 values, Well 3 (L929 cell line; 100μM, third assay): 0.9325 | IC50 (L929 cell line; MTS assay, 24 h exposure, ordinary fibroblast, not cancer cells): 94.5 µM | IC50 (T24 cell line; MTS assay, 24 h exposure): 129 µM | OD490 Mean (T24 cell line; 0.5μM, first assay): 1.9335 | OD490 Well 1 (T24 cell line; 0.5μM, first assay): 1.4364 | OD490 Well 2 (T24 cell line; 0.5μM, first assay): 2.2473 | OD490 Well 3 (T24 cell line; 0.5μM, first assay): 2.1169 | OD490 Mean (T24 cell line; 0.5μM, second assay): 1.7407 | OD490 Well 1 (T24 cell line; 0.5μM, second assay): 1.6852 | OD490 Well 2 (T24 cell line; 0.5μM, second assay): 1.7785 | OD490 Well 3 (T24 cell line; 0.5μM, second assay): 1.7585 | OD490 Mean (T24 cell line; 0.5μM, third assay): 1.7395 | OD490 Well 1 (T24 cell line; 0.5μM, third assay): 1.7423 | OD490 Well 2 (T24 cell line; 0.5μM, third assay): 1.7741 | OD490 Well 3 (T24 cell line; 0.5μM, third assay): 1.7022 | OD490 Mean (T24 cell line; 1μM, first assay): 2.0004 | OD490 Well 1 (T24 cell line; 1μM, first assay): 1.9146 | OD490 Well 2 (T24 cell line; 1μM, first assay): 1.8237 | OD490 Well 3 (T24 cell line; 1μM, first assay): 2.2630 | OD490 Mean (T24 cell line; 1μM, second assay): 1.6895 | OD490 Well 1 (T24 cell line; 1μM, second assay): 1.7235 | OD490 Well 2 (T24 cell line; 1μM, second assay): 1.6895 | OD490 Well 3 (T24 cell line; 1μM, second assay): 1.6555 | OD490 Mean (T24 cell line; 1μM, third assay): 1.7159 | OD490 Well 1 (T24 cell line; 1μM, third assay): 1.7423 | OD490 Well 2 (T24 cell line; 1μM, third assay): 1.7020 | OD490 Well 3 (T24 cell line; 1μM, third assay): 1.7033 | OD490 Mean (T24 cell line; 10μM, first assay): 1.7700 | OD490 Well 1 (T24 cell line; 10μM, first assay): 1.7289 | OD490 Well 2 (T24 cell line; 10μM, first assay): 1.7432 | OD490 Well 3 (T24 cell line; 10μM, first assay): 1.8379 | OD490 Mean (T24 cell line; 10μM, second assay): 1.7224 | OD490 Well 1 (T24 cell line; 10μM, second assay): 1.6895 | OD490 Well 2 (T24 cell line; 10μM, second assay): 1.7125 | OD490 Well 3 (T24 cell line; 10μM, second assay): 1.7652 | OD490 Mean (T24 cell line; 10μM, third assay): 1.7024 | OD490 Well 1 (T24 cell line; 10μM, third assay): 1.6647 | OD490 Well 2 (T24 cell line; 10μM, third assay): 1.7424 | OD490 Well 3 (T24 cell line; 10μM, third assay): 1.7000 | OD490 Mean (T24 cell line; 25μM, first assay): 1.7511 | OD490 Well 1 (T24 cell line; 25μM, first assay): 1.6328 | OD490 Well 2 (T24 cell line; 25μM, first assay): 1.8078 | OD490 Well 3 (T24 cell line; 25μM, first assay): 1.8128 | OD490 Mean (T24 cell line; 25μM, second assay): 1.5821 | OD490 Well 1 (T24 cell line; 25μM, second assay): 1.5660 | OD490 Well 2 (T24 cell line; 25μM, second assay): 1.5848 | OD490 Well 3 (T24 cell line; 25μM, second assay): 1.5954 | OD490 Mean (T24 cell line; 25μM, third assay): 1.5535 | OD490 Well 1 (T24 cell line; 25μM, third assay): 1.5385 | OD490 Well 2 (T24 cell line; 25μM, third assay): 1.5232 | OD490 Well 3 (T24 cell line; 25μM, third assay): 1.5987 | OD490 Mean (T24 cell line; 50μM, first assay): 1.6313 | OD490 Well 1 (T24 cell line; 50μM, first assay): 1.6866 | OD490 Well 2 (T24 cell line; 50μM, first assay): 1.7561 | OD490 Well 3 (T24 cell line; 50μM, first assay): 1.4513 | OD490 Mean (T24 cell line; 50μM, second assay): 1.4096 | OD490 Well 1 (T24 cell line; 50μM, second assay): 1.4425 | OD490 Well 2 (T24 cell line; 50μM, second assay): 1.4212 | OD490 Well 3 (T24 cell line; 50μM, second assay): 1.3652 | OD490 Mean (T24 cell line; 50μM, third assay): 1.4169 | OD490 Well 1 (T24 cell line; 50μM, third assay): 1.4284 | OD490 Well 2 (T24 cell line; 50μM, third assay): 1.4022 | OD490 Well 3 (T24 cell line; 50μM, third assay): 1.4202 | OD490 Mean (T24 cell line; 100μM, first assay): 1.4469 | OD490 Well 1 (T24 cell line; 100μM, first assay): 1.4538 | OD490 Well 2 (T24 cell line; 100μM, first assay): 1.4557 | OD490 Well 3 (T24 cell line; 100μM, first assay): 1.4313 | OD490 Mean (T24 cell line; 100μM, second assay): 1.2781 | OD490 Well 1 (T24 cell line; 100μM, second assay): 1.3325 | OD490 Well 2 (T24 cell line; 100μM, second assay): 1.2654 | OD490 Well 3 (T24 cell line; 100μM, second assay): 1.2365 | OD490 Mean (T24 cell line; 100μM, third assay): 1.2819 | OD490 Well 1 (T24 cell line; 100μM, third assay): 1.2539 | OD490 Well 2 (T24 cell line; 100μM, third assay): 1.3332 | OD490 Well 3 (T24 cell line; 100μM, third assay): 1.2585
